Data from ChEMBL document CHEMBL4152321, “Synthesis and antiplasmodial activity of glyco-conjugate hybrids of phenylhydrazono-indolinones and glycosylated 1,2,3-triazolyl-methyl-indoline-2,3-diones” (Eur J Med Chem, 2018).
pIC50: −log10 of the molar value.

Key:
[1] = Selectivity index, ratio of CC50 for African green monkey Vero cells to IC50 for chloroquine-resistant Plasmodium falciparum K1 infected in human erythrocytes; assay type: toxicity, cell-based; conditions: read-out: Ratio CC50/IC50
[2] = Selectivity index, ratio of CC50 for African green monkey Vero cells to IC50 for chloroquine-sensitive Plasmodium falciparum 3D7 infected in human erythrocytes; assay type: toxicity, cell-based; conditions: read-out: Ratio CC50/IC50
Plasmodium falciparum [3] = assay: Antiplasmodial activity against chloroquine-resistant Plasmodium falciparum K1 infected in human erythrocytes after 72 hrs by SYBR Green 1 staining based fluorescence assay; assay type: functional, organism-based; conditions: K1, 72 h
[4] = Cytotoxicity against African green monkey Vero cells after 3 days by resazurin dye based fluorescence assay; assay type: cell-based; conditions: chlorocebus sabaeus
Plasmodium falciparum [5] = assay: Antiplasmodial activity against chloroquine-sensitive Plasmodium falciparum 3D7 infected in human erythrocytes after 72 hrs by SYBR Green 1 staining based fluorescence assay; assay type: functional, organism-based; conditions: 3D7, 72 h

| Compound | selectivity ratio [1] | selectivity ratio [2] | pIC50 (Plasmodium falciparum [3]) | CC50 at 72 h [4] | pIC50 (Plasmodium falciparum [5]) |
| --- | --- | --- | --- | --- | --- |
| O=C1/C(=N\Nc2ccc(Br)cc2)c2ccccc2N1Cc1cn(O[C@@H]2O[C@H](CO)[C@H](O)[C@H](O)[C@H]2O)nn1 | 19.5 | 25.8 | 5.33 | 91.5 µM | 5.44 |
| CC(=O)C[C@H]1O[C@@H](On2cc(CN3C(=O)/C(=N\Nc4ccc(Br)cc4)c4ccccc43)nn2)[C@H](OC(C)=O)[C@@H](OC(C)=O)[C@H]1OC(C)=O | 28.6 | 39.9 | 5.54 | 83.4 µM | 5.68 |
| CC(=O)C[C@H]1O[C@@H](On2cc(CN3C(=O)/C(=N\Nc4ccc(F)cc4)c4ccccc43)nn2)[C@H](OC(C)=O)[C@@H](OC(C)=O)[C@@H]1OC(C)=O | 18.1 | 30.5 | 5.42 | 68.7 µM | 5.65 |
| CC1(C)O[C@H]2O[C@H](Cn3cc(CN4C(=O)C(=O)c5ccccc54)nn3)[C@H](O)[C@H]2O1 | > 58.8 | > 46.2 | 5.47 | > 200 µM | 5.36 |
